Legend:
[1] = molecular target: T1, PPARγ ligand binding domain (LBD) (amino acids 195-475) (Homo sapiens, UniProt P37231); assay: PPAR-γ binding assay (spin plate / gel filtration binding assay, displacement of [3H]BRL 49653); conditions: read-out: IC50 range in the PPAR-γ Binding Assay
T1 construct: polyHis; made in house; host or cells: Escherichia coli
T1 sequence (P37231 195-475 isoform P37231-2): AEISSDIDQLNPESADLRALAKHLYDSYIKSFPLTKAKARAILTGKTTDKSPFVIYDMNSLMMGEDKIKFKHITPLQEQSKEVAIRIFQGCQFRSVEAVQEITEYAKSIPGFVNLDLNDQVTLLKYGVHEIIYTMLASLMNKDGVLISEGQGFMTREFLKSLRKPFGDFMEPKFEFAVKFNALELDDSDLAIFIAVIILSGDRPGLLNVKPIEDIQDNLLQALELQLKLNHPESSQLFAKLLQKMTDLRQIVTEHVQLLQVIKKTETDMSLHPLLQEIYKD
Protocol: The activity of a given compound in binding to PPAR-γ can be assayed routinely according to procedures known in the art. […] The PPAR-γ binding assay described below was used to determine the PPAR-γ binding activities of the compounds of the invention.
Compounds were tested for their ability to bind to PPARγ using a spin plate assay (gel filtration binding assay). […] Each compound was tested in triplicate. […] The plates were centrifuged (Beckman GS-6R) at 2500 rpm for 5 minutes, 170 μl Scitisafe® scintillation fluid (Fisher) was added to each well, the plates were sealed, and after 1 hour, were counted in a Wallac MicroBeta counter. The amount of nonspecific binding, as assessed by control wells containing 10 μM of the corresponding unlabeled ligand, was subtracted from each data point. For each compound tested, the data was averaged and plots of ligand concentration versus CPM of radioligand bound were constructed. Apparent IC50 values were estimated from nonlinear least-squares fit of the data assuming simple competitive binding.

With `COc1cccc(Cn2c(C(=O)O)c(-c3ccc(C(C)(C)C)cc3)c3cc(C4CCCC4)ccc32)c1` [Example 273] the IC50 [1] was 0.1 to 9.99 nM and the melting point was 192 to 193 °C.

`COc1cccc(Cn2c(C(=O)O)c(-c3ccc(C(C)(C)C)cc3)c3cc(N(C)C(=O)C4CC4)ccc32)c1` [Example 274] showed an IC50 [1] of 10 to 10000 nM and a melting point of 219 to 222 °C.

With `COc1cccc(Cn2c(C(=O)O)c(-c3ccc(C(C)(C)C)cc3)c3cc4c(cc32)OCO4)c1` [Example 277] the IC50 [1] was 0.1 to 9.99 nM and the melting point was 179.1 to 179.7 °C.

With `COc1ccc(-c2c(C(=O)O)n(CS(=O)(=O)c3ccccc3)c3ccccc23)cc1` [Example 282] the IC50 [1] was 10 to 10000 nM and the melting point was 166 to 168 °C.

In the case of `CC(C)c1cccc(-c2c(C(=O)O)n(Cc3cccc(OCC4CC4)c3)c3ccccc23)c1` [Example 284], the IC50 [1] is reported as 0.1 to 9.99 nM and the melting point is reported as 204 °C.

`CCOc1ccc(-c2c(C(=O)O)n(Cc3ccc(F)cc3)c3c(N(C)C(=O)C4CC4)cccc23)cc1` [Example 286] gave an IC50 [1] of 10 to 10000 nM and a melting point of 128 °C.

Compound `COc1ccc(-c2c(C(=O)O)n(Cc3cccc(OCC4CC4)c3)c3ccccc23)cc1` [Example 287] has an IC50 [1] of 0.1 to 9.99 nM and a melting point of 168 °C.

For `CC(C)(C)c1ccc(-c2c(C(=O)O)n(Cc3cccc(OCC4CC4)c3)c3ccccc23)cc1` [Example 288], the IC50 [1] was 0.1 to 9.99 nM and the melting point was 120 °C.

With `CC(C)(C)c1ccc(-c2c(C(=O)O)n(Cc3cccc(OC4CCCC4)c3)c3ccccc23)cc1` [Example 289] the IC50 [1] was 0.1 to 9.99 nM and the melting point was 159 °C.

Compound `CC(=O)c1cccc(-c2c(C(=O)O)n(Cc3cccc(OCC4CC4)c3)c3ccccc23)c1` [Example 290] has an IC50 [1] of 0.1 to 9.99 nM and a melting point of 103 °C.

With `COc1cccc(Cn2c(C(=O)O)c(-c3ccc(C(C)(C)C)cc3)c3cccc(NC(=O)NC4CC4)c32)c1` [Example 291] the IC50 [1] was 10 to 10000 nM and the melting point was 168 °C (dec.).

With `COc1cccc(Cn2c(C(=O)O)c(-c3ccc(C(C)(C)C)cc3)c3cccc(NC(=O)C4CC4)c32)c1` [Example 292] the IC50 [1] was 10 to 10000 nM and the melting point was 151 °C.

For `COc1cccc(Cn2c(C(=O)O)c(-c3ccc(C(C)(C)C)cc3)c3cccc(N(C)C(=O)N(C)C4CC4)c32)c1` [Example 293], the IC50 [1] was 10 to 10000 nM and the melting point was 112 to 115 °C (dec.).

In the case of `COc1cccc(Cn2c(C(=O)O)c(-c3cccc(NC(=O)NC4CC4)c3)c3ccccc32)c1` [Example 294], the IC50 [1] is reported as 10 to 10000 nM and the melting point is reported as 110 °C (dec.).

For `COc1cccc(Cn2c(C(=O)O)c(-c3cccc(N(C)C(=O)C4CC4)c3)c3ccccc32)c1` [Example 295], the IC50 [1] was 10 to 10000 nM and the melting point was 200 °C.

With `COc1cccc(Cn2c(C(=O)O)c(-c3ccc(C(C)(C)C)cc3)c3c(OCC4CC4)cccc32)c1` [Example 296] the IC50 [1] was 10 to 10000 nM and the melting point was 162 °C.

With `COc1ccc(Cc2c(C(=O)O)n(Cc3cccc(OCC4CC4)c3)c3ccccc23)cc1` [Example 297] the IC50 [1] was 0.1 to 9.99 nM and the melting point was 168 to 170 °C.

Work on `CC(=O)Nc1cccc(-c2c(C(=O)O)n(Cc3cccc(OCC4CC4)c3)c3ccccc23)c1` [Example 298] yielded an IC50 [1] of 10 to 10000 nM and a melting point of 122 to 123 °C.

Compound `Cc1cccc(-c2c(C(=O)O)n(Cc3cccc(OCC4CC4)c3)c3ccccc23)c1` [Example 299] has an IC50 [1] of 0.1 to 9.99 nM and a melting point of 58 to 60 °C.

Work on `COc1cccc(Cn2c(C(=O)O)c3c4cc(ccc42)OCCCCCCOc2cccc-3c2)c1` [Example 300] yielded an IC50 [1] of 10 to 10000 nM and a melting point of 79 to 80 °C.

In the case of `COc1ccc(-c2c(C(=O)O)n(Cc3cccc(OC)c3)c3ccc(C(C)=O)cc23)cc1` [Example 301], the IC50 [1] is reported as 10 to 10000 nM and the melting point is reported as 190 °C (dec.).

With `COc1ccc(-c2c(C(=O)O)n(Cc3cccc(OC)c3)c3c(NC(=O)C4CC4)cccc23)cc1` [Example 302] the IC50 [1] was 10 to 10000 nM and the melting point was 210 °C (dec.).

For `COc1ccc(-c2c(C(=O)O)n(Cc3cccc(OC)c3)c3c(N(C)C(=O)C4CC4)cccc23)cc1` [Example 303], the IC50 [1] was 10 to 10000 nM and the melting point was 98 °C (dec.).

`COc1cccc(Cn2c(C(=O)O)c(-c3ccc(C(=O)NC4CC4)cc3)c3ccccc32)c1` [Example 323, 3-[4-(N-cyclopropylcarbamoyl)phenyl]-1-[(3-methoxyphenyl)methyl]indole-2-carboxylic acid] gave an IC50 [1] of 10 to 10000 nM and a melting point of 237 °C.

In the case of `COc1cccc(Cn2c(C(=O)O)c(-c3ccc(C(=O)NC4CCCC4)cc3)c3ccccc32)c1` [Example 324], the IC50 [1] is reported as 10 to 10000 nM and the melting point is reported as 230 °C.

With `COc1cccc(Cn2c(C(=O)O)c(-c3ccc(C(=O)NC4CCCCC4)cc3)c3ccccc32)c1` [Example 325] the IC50 [1] was 10 to 10000 nM and the melting point was 245 °C.

With `COc1cccc(Cn2c(C(=O)O)c(-c3cccc(NC(=O)C4CCCC4)c3)c3ccccc32)c1` [Example 327] the IC50 [1] was 10 to 10000 nM and the melting point was 133 °C (dec.).

`COc1cccc(Cn2c(C(=O)O)c(-c3cccc(C(=O)NC4CC4)c3)c3ccccc32)c1` [Example 328] showed an IC50 [1] of 10 to 10000 nM and a melting point of 204 °C.

Compound `COc1cccc(Cn2c(C(=O)O)c(-c3cccc(C(=O)NC4CCCC4)c3)c3ccccc32)c1` [Example 329] has an IC50 [1] of 10 to 10000 nM and a melting point of 108 °C.

With `COc1cccc(Cn2c(C(=O)O)c(-c3ccc(C(C)(C)C)cc3)c3cc(NCC4CC4)ccc32)c1` [Example 335] the IC50 [1] was 0.1 to 9.99 nM and the melting point was 180 to 181 °C.

For `O=C(O)c1c(-c2cccc(OCC3CC3)c2)c2ccccc2n1Cc1ccc(F)cc1` [Example 339, 3-[3-(Cyclopropylmethoxy)phenyl]-1-[(4-fluorophenyl)methyl]indole-2-carboxylic Acid], the IC50 [1] was 0.1 to 9.99 nM and the melting point was 200 to 202 °C.

For `O=C(O)c1c(-c2ccc(OCC3CC3)cc2)c2ccccc2n1Cc1ccc(F)cc1` [Example 341], the IC50 [1] was 0.1 to 9.99 nM and the melting point was 197 to 198 °C.

For `COc1cccc(Cn2c(C(=O)O)c(-c3ncc(C(C)=O)s3)c3ccccc32)c1` [Example 343], the IC50 [1] was 0.1 to 9.99 nM and the melting point was 218 °C (dec.).

Compound `COc1cccc(Cn2c(C(=O)O)c(-c3cccc(OCC4CC4)c3)c3ccccc32)c1` [Example 345] has an IC50 [1] of 0.1 to 9.99 nM and a melting point of 147 to 148 °C.

`O=C(O)c1c(-c2ccc(OCC3CC3)cc2)c2ccccc2n1Cc1cccc(OC(F)(F)F)c1` [Example 346] gave an IC50 [1] of 0.1 to 9.99 nM and a melting point of 204 to 205 °C.

`CCOc1ccc(-c2c(C(=O)O)n(Cc3ccc(F)cc3)c3ccc(COCC4CC4)cc23)cc1` [Example 347, 5-[(Cyclopropylmethoxy)methyl]-3-(4-ethoxyphenyl)-1-(4-fluorobenzyl)-1H-indole-2-carboxylic acid] gave an IC50 [1] of 0.1 to 9.99 nM and a melting point of 171 to 173 °C.

In the case of `COc1ccc(-c2c(C(=O)NS(=O)(=O)c3ccc(C)cc3)n(Cc3cccc(C(F)(F)F)c3)c3ccccc23)cc1` [Example 358], the IC50 [1] is reported as 10 to 10000 nM and the melting point is reported as 162 °C.

Work on `COc1ccc(-c2c(C(=O)NS(=O)(=O)c3ccc(Cl)cc3)n(Cc3cccc(C(F)(F)F)c3)c3ccccc23)cc1` [Example 359] yielded an IC50 [1] of 0.1 to 9.99 nM and a melting point of 166 °C.

Source: patent US6787651B2, “Substituted indoles, pharmaceutical compounds containing such indoles and their use as PPAR-γ binding agents” (SmithKline Beecham Corporation, priority 2000, dated 2004)
